The values below come from patent US11510886B2, “Metformin amino acid compounds and methods of using the same” (Laboratorios Silancs S.A. DE C.V., priority 2016, dated 2022).

Entries after “also recorded” stand apart in the source; their conditions may differ. Where a name gives a salt, the structure may show the parent alone. Read-outs that look alike come from different tables or passages of the source.

The test system of one series is LKB1 and GPBP. The series is described as follows: LKB1 and GPBP distribution in C2C12 myotubes (confocal microscopy). Type of series: cell-based, Mice. The conditions noted are these: 10 mM, 3 hours (FIG. 71). As to the method: FIG. 71. […] C2C12 cells were differentiated to myotubes for 5 days by incubation in DMEM medium, supplemented with 2% horse serum; […]. Cells were washed with PBS (3×5 minutes) and incubated with antibodies against mouse IgG, conjugated with Alexa Fluor 488, and against goat IgG, conjugated with Alexa Fluor 546 (Molecular Probes) for 1 hour at RM in the dark. In this and in the following Figures showing confocal microscopy of cell cultures, all antibodies used were diluted in blocking solution. After incubation with antibodies, cells were washed with PBS (3×5 minutes) and mounting medium (Dako) in glass slides. Preparations were visualized with confocal microscopy and obtained images were analyzed with the WCIF ImageJ software as to detect colocalization points between GPBP and LKB1. GPBP appears in green, LKB1 in red, and colocalization points indicating similar and corresponding expression levels in both proteins appear in white.

A further series has as its system (NZB×NZW) F1 mice. The series is described as follows: Proteinuria and renal lupus in (NZB×NZW) F1 mice. Type of series: in vivo. Particulars: for number of mice with a pathological grade above 3: kidneys at week 35 (FIG. 84).
Another series concerns GLUT4. Kind of series: GLUT4-GFP transport to plasma membrane in NIH-3T3-L1 adipocytes. It counts as cell-based, Mice. Particulars: confocal microscopy (FIG. 75). As to the method:
FIG. 75. […] NIH-3T3-L1 cells were transfected with a construction expressing GLUT4 fused with Green Fluorescent Protein-GFP (Addgene). Transfected cells were selected by flow cytometry, taking advantage of GFP fluorescence, and cultured in DMEM supplemented with 10% FBS. […] Images were analyzed with the WCIF ImageJ software to detect colocalization of GPBP (red) with GLUT4 (green). […].

For another series, the system named is RAW264.7 macrophages. The series is described as follows: IL-10 expression in RAW264.7 macrophages stimulated with LPS and IFN-γ. It counts as cell-based. As to the method:
FIG. 92. […]. After several incubation times, cells were processed as shown in FIG. 79 for RT-qPCR analysis, and IL-10 relative quantification (RQ) was determined with a specific probe (Taqman®, Life Technologies) using HPRT-1 as a normalizer and non-stimulated cells as a reference point (time 0). In the Table in FIG. 92, the area under the curve (AUC) is indicated for each of the series.
FIG. 93. The IL-10 expression depends on GPBP-1. […]. […] The silencing efficacy was tested by Western blot with RAW264.7 (WT) and pSi-GPBP-1 cell lysates (50 μg), using specific antibodies (right).
FIG. 94. The IL-10 expression depends on cGPBP-1. In A, an assay scheme is shown; […]. […] In B, the relative expression of IL-10 in RAW264.7 macrophages cultured with conditioned media, obtained as specified in A, is shown. The analysis was carried out by quantitative RT and PCR, using HPRT-1 as a normalizer. In this case, the reference point were cells treated with a conditioned medium in absence of N26 (RQ=1 value), and the increased IL-10 expression was verified; the analysis included non-stimulated cells cultured in a fresh, non-conditioned medium (cells).

A further series deals with T1, GPBP (Mus musculus, UniProt Q9EQG9).
T1 construct: endogenous in cells; host or cells: C2C12 myotubes
T1 sequence (Q9EQG9 1-624): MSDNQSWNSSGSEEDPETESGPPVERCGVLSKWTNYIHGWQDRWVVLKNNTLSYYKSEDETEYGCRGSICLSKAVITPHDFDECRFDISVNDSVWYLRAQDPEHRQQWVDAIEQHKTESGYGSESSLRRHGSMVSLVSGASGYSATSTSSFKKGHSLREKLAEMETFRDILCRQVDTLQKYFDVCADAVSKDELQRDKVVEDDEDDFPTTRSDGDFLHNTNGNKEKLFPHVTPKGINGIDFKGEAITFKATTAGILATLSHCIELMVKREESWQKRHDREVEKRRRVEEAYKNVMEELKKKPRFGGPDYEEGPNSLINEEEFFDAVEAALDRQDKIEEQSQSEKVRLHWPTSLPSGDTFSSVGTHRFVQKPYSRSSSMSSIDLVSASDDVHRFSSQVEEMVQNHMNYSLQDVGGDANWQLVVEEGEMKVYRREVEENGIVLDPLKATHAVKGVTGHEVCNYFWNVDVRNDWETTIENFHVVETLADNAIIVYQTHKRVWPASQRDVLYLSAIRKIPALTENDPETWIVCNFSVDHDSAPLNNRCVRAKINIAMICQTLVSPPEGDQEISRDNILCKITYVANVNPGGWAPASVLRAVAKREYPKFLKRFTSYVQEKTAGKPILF
The series is described as follows: GPBP phosphorylation state in C2C12 myotubes (Western blot). Type of series: cell-based, Mice. The conditions noted are these: 3 hours (FIG. 65). As to the method: FIG. 65. […]. Similar quantities of each extract were analyzed using Western blot (SDS-PAGE and electrotransfer), with the indicated antibodies and chemiluminescence (ECL Prime, GE Healthcare). The arrow marks a dephosphorylated band, with higher abundance in SLN10-treated cells than in non-treated or SLN1-treated cells.

The subject of a further series is C2C12 myotubes. The series is described as follows: Glucose concentration in C2C12 myotube culture medium. Type of series: cell-based, Mice. Particulars: for glucose consumption in normoglycemia: glucose adjusted to 100 mg/100 mL, 10 mM (FIGS. 68A-B). The procedure:
FIG. 67. Hypoglycemic activity ex vivo. Glucose concentration in myocyte culture medium, treated with the control, SLN1, or SLN10. […]. The final glucose concentration in the culture medium was determined with a Glucocard (Arkray). […].
Glucose concentration in culture media was determined with a Glucocard (Arkray). […].
For this purpose, the evolution of glucose uptake was studied in the culture medium of myotubes in response to different molecules studied (FIG. 67).

The subject of another series is GPBP and VAPA. The series is described as follows: Colocalization of GPBP with VAPA in C2C12 cells. It counts as cell-based, Mice. Particulars: C2C12, 10 mM, 16 hours; p=0.0093 Control vs. SLN1, p=0.0001 Control vs. SLN10, p=0.0283 SLN10 vs SLN1. The procedure:
FIG. 74A. […] In FIG. 74A, C2C12 cells were differentiated for 3 days in DMEM supplemented with 2% horse serum. […] Subsequently, cells were washed with PBS (3×5 minutes) and incubated with mouse secondary anti-IgG antibodies, conjugated with Alexa Fluor 488, and goat anti-IgG antibodies, conjugated with TRITC (Molecular Probes) for 1 hour at RM in the dark; then, cells were washed again with PBS (3×5 minutes) and mounted for confocal microscopy observation. Afterwards, the images obtained were analyzed with the WCIF ImageJ software to quantify colocalization quotient between GPBP and VAPA. In the third column, the points at which there are similar expression levels of both GPBP and VAPA appear in white.

Experimental for (NZB×NZW) F1 mice: FIG. 81. Proteinuria evolution in (NZB×NZW) F1 mice, treated with a control, SLN1, and SLN10. […] Urine samples were taken periodically and protein concentration was determined. Proteinuria mean value (±SEM) for the mice groups mentioned above is shown in the graph. […] FIG. 82. Criteria used to determine the renal pathological grade in mice, by staining with haematoxylin-eosin.
FIG. 83. […] (NZB×NZW) F1 mice in the assay described in FIG. 81 were sacrificed at week 35; their kidneys were analyzed by staining with haematoxylin-eosin, and their pathological grade was estimated according to criteria in FIG. 82. The number of mice that developed low/moderate (<300 mg/dl) or high (>300 mg/dl) proteinuria at the end of the assay, classified according to their pathological grade, is shown.
FIG. 84. […] The renal pathological grade of each one of the mice in the assay described in FIG. 81, grouped according to treatment, is shown. Intermediate positions represent animals with renal lesions between the higher or lower grades.
FIG. 85. […] (NZB×NZW) F1 mice in the assay described in FIG. 81 were subjected to blood samples periodically, and antibodies titers (anti-ssDNA IgG) were determined using the Mouse anti-ssDNA ELISA kit (Alpha Diagnostic International), following the manufacturer's instructions. In the graph, the mean (±SEM) for each mice group over time is shown.
FIG. 86. cGPBP levels increase and decrease before the introduction of proteinuria in (NZB×NZW) F1 mice. […] Mean values (±SEM) for cGPBP in the mice groups during the indicated weeks.

Take `CN(C)C(=N)N=C(N)N` [Metformin hydrochloride, metformin hydrochloride, reference compound]: in the series with LKB1 and GPBP, the “distribution of LKB1-GPBP aggregates” value was “moved LKB1-GPBP aggregates from peripheral positions to areas around the nuclei”. Moreover, in the series with (NZB×NZW) F1 mice (from week 33 onwards), the deaths result is “began to die”. For the same molecule, the “number of mice with a pathological grade above 3” value in the series with (NZB×NZW) F1 mice was found to be 7. For the same molecule, where the note is “rat, in vivo, 250 mg/kg”, the “Body weight (g) On administration day” value came out at 190.39 ± 9.88 g and the “Body weight (g) On distribution day” value was found to be 186.93 ± 10.39 g. For the same molecule, the “Body weight (g) On distribution day” value (rat, in vivo, 750 mg/kg) is 189.03 ± 15.13 g. Also, the “distribution of GPBP and GLUT4 in L1 adipocytes” value in the series on GLUT4 was “low presence in secretory vesicles”. Besides, the IL-10 expression result with RAW264.7 macrophages (10 mM, LPS and IFN-γ (FIG. 92)) is on record as “increase IL-10 expression”. Besides, in the series with RAW264.7 macrophages (pSi-GPBP-1 macrophages (FIG. 93)), the “dependence of IL-10 expression on GPBP expression” value was “virtually GPBP independent”. Moreover, the “GPBP phosphorylation state in myotubes” value on GPBP is on record as “barely altered the phosphorylation state”. Also, the “glucose consumption in normoglycemia” value with C2C12 myotubes is “equally induce glucose consumption”. In addition, the “colocalization of GPBP with VAPA” value in the series with GPBP and VAPA is “reduced significantly”.

On to metformin lysinate, for which the “distribution of LKB1-GPBP aggregates” value with LKB1 and GPBP (listed as SLN10) was “seems to induce decolocalization in GPBP and LKB1; also recorded: delocalization of LKB1 and virtual absence of kinase in granular aggregates”. For the same molecule, in the series on (NZB×NZW) F1 mice (100 mg/kg/day, IP 5 days from week 16, then oral in drinking water, vs control, listed as SLN10), the proteinuria entry was “most effective; also recorded: significantly less proteinuria; also recorded: reduced proteinuria”. Also, in the series on (NZB×NZW) F1 mice (FIG. 85, Control vs. SLN10 p=0.0238), the “autoantibody (anti-ssDNA IgG) titers” value is listed as “reduces antibodies titers; also recorded: reduced titers by half”. Further, the “number of mice with a pathological grade above 3” value with (NZB×NZW) F1 mice amounted to 3. The “circulating GPBP levels (cGPBP)” value in the series on (NZB×NZW) F1 mice (plasma, before steady increase of proteinuria (FIG. 86)) is recorded as “showed no increase”. Moreover, the “blood glucose level of animal ID93” value (750 mg/kg, fifth day, six hours after the glucose overload) stood at 16 mg/dL. The “Body weight (g) On administration day” value (Groups B-K, 250 mg/kg, Mean ± SD) stood at 189.83 ± 11.17 g. The “Body weight (g) On distribution day” value (Groups B-K, 250 mg/kg, before dosing, Mean ± SD) was 184.42 ± 11.94 g and the “Body weight (g) On distribution day” value (Groups L-U, 750 mg/kg, before dosing, Mean ± SD) came to 186.73 ± 8.05 g. The “Body weight (g) On first administration day” value turned out to be 203.38 ± 13.38 g (Groups L-U, 750 mg/kg, first column of this head, Mean ± SD) and 192.83 ± 9.65 g (Groups L-U, 750 mg/kg, second column of this head, Mean ± SD). Also, the “mortality and clinical signs” value (glucokinetic groups, 750 mg/kg for five days, 750 mg/kg) is “hypothermia, lack of activity and tear excess”; the “mortality and clinical signs” value (glucokinetic groups, 750 mg/kg for five days, listed as metformin lysinate, 750 mg/kg) is recorded as “severe hypoglycemia”; the “mortality and clinical signs” value (pharmacokinetic assay, single 250 mg/kg) is recorded as “respiratory noises”. Moreover, in the series with GLUT4, the “distribution of GPBP and GLUT4 in L1 adipocytes” value is reported as “widely located in the plasma membrane”. The IL-10 expression result with RAW264.7 macrophages is “increase IL-10 expression; also recorded: markedly superior”. Also, the “dependence of IL-10 expression on GPBP expression” value with RAW264.7 macrophages is recorded as “depended largely on the GPBP expression”. On GPBP (listed as SLN10), the “GPBP phosphorylation state in myotubes” value was “induce GPBP dephosphorylation; also recorded: induced a remarkable GPBP dephosphorylation”. The “glucose consumption in normoglycemia” value in the series on C2C12 myotubes is given as “equally induce glucose consumption”. Moreover, in the series with C2C12 myotubes (initial glucose 450 mg/100 mL, 10 mM, last 18 hours (FIG. 67), listed as SLN10), the “anti-hyperglycaemic activity (glucose in myotube medium)” value is reported as “greater effect than SLN1; also recorded: higher than that of compound SLN1”. Moreover, the “colocalization of GPBP with VAPA” value in the series with GPBP and VAPA is on record as “reduced significantly; also recorded: more intensely than SLN1”.
